Test results reported in patent US20150105252A1, “SUBSTITUTED PYRAZOLES AS HERBICIDES” (E I DU PONT DE NEMOURS AND COMPANY, priority 2013, published 2015).

What was measured:
morningglory = assay: Test A preemergence; format: in vivo, Ipomoea spp.; conditions: preemergence
How it was run: (§1)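 Both timings tested concurrently in loam/sand soil: preemergence by directed soil spray, postemergence on plants of 2–10 cm at the one- to two-leaf stage. Greenhouse holding period was approximately 10 days before visual injury assessment (0–100, 0 = no effect).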

galium = assay: Test C preemergence; format: in vivo, Galium aparine; conditions: for Plant response rating (scale of 0 to 100), Galium: Preemergence, 250 g ai/ha; for Galium plant response rating / Plant response rating, Galium: preemergence; for Plant response rating, Galium: scale 0 to 100, 0 = no effect, 100 = complete control
How it was run: (§2)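 Pre- and postemergence greenhouse screen; vehicle was a non-phytotoxic solvent mix with surfactant. Preemergence: treatment applied right after sowing into loam and sand. Postemergence: treated at 1–4 leaves. Visual rating at 13–15 days, 100 = complete control.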

oilseed rape = assay: Test C preemergence; format: in vivo, Brassica napus; conditions: for Plant response rating (scale of 0 to 100), Oilseed Rape: Preemergence, 250 g ai/ha; for Oilseed Rape plant response rating / Plant response rating, Oilseed Rape: preemergence; for Plant response rating, Oilseed Rape: scale 0 to 100, 0 = no effect, 100 = complete control
How it was run: as §2

pigweed [1] = assay: Test A postemergence; format: in vivo, Amaranthus retroflexus
How it was run: as §1

crabgrass, large [2] = assay: Test A postemergence; format: in vivo, Digitaria sanguinalis
How it was run: as §1

barnyardgrass = assay: Test A postemergence; format: in vivo, Echinochloa crus-galli
How it was run: as §1

ducksalad = assay: Test B flood; format: in vivo, Heteranthera limosa; conditions: 250 g ai/ha, visual rating on 0 to 100 scale (0 no effect, 100 complete control), 13 to 15 days
How it was run: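 Visual ratings (0 = no effect, 100 = complete control) versus untreated controls were taken 13–15 days after treatment of greenhouse plants. Treatment was added to paddy water held at 3 cm depth on 2-leaf-stage seedlings.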

crabgrass, large [3] = assay: Test C preemergence; format: in vivo, Digitaria sanguinalis; conditions: for Plant response rating (scale of 0 to 100), Crabgrass, Large: Preemergence, 250 g ai/ha; for Crabgrass, Large plant response rating / Plant response rating, Crabgrass, Large: preemergence; for Plant response rating, Crabgrass, Large: scale 0 to 100, 0 = no effect, 100 = complete control
From the text: (§3) Seeds of plant species selected from blackgrass (Alopecurus myosuroides), ryegrass, Italian (Italian ryegrass, Lolium multiflorum), wheat (winter wheat, Triticum aestivum), galium (catchweed bedstraw, Galium aparine), corn (Zea mays), crabgrass, large (large crabgrass, Digitaria sanguinalis), foxtail, giant (giant foxtail, Setaria faberii), johnsongrass (Sorghum halepense), lambsquarters (Chenopodium album), morningglory (Ipomoea coccinea), nutsedge, yellow (yellow nutsedge, Cyperus esculentus), pigweed (redroot pigweed, Amaranthus retroflexus), ragweed (common ragweed, Ambrosia elation), soybean (Glycine max), barnyardgrass (Echinochloa crus-galli), oilseed rape (Brassica napus), waterhemp (common waterhemp, Amaranthus rudis), oat, wild (wild oat, Avena fatua), kochia (Kochia scoparia), Surinam grass (Brachiaria decumbens), foxtail, green (green foxtail, Setaria viridis), goosegrass (Eleusine indica), bromegrass, downy (downy bromegrass, Bromus tectorum), nightshade (eastern black nightshade, Solanum ptycanthum), cocklebur (common cocklebur, Xanthium strumarium), cupgrass, woolly (woolly cupgrass, Eriochloa villosa), bermudagrass (Cynodon dactylon), sunflower, (common oilseed sunflower, Helianthus annuus), Russian thistle (Salsola kali), and velvetleaf (Abutilon theophrasti) were planted into a blend of loam soil and sand and treated preemergence with test chemicals formulated in a non-phytotoxic solvent mixture which included a surfactant.
(§4) At the same time, plants selected from these crop and weed species and also chickweed (common chickweed, Stellaria media), canarygrass (littleseed canarygrass, Phalaris minor), and deadnettle (henbit deadnettle, Lamium amplexicaule), were planted in pots containing Redi-Earth® planting medium (Scotts Company, 14111 Scottslawn Road, Marysville, Ohio 43041) comprising spaghnum peat moss, vermiculite, wetting agent and starter nutrients and treated with postemergence applications of test chemicals formulated in the same manner. Plants ranged in height from 2 to 18 cm (1- to 4-leaf stage) for postemergence treatments. Treated plants and controls were maintained in a greenhouse for 13 to 15 days, after which time all species were compared to controls and visually evaluated. Plant response ratings, summarized in Table C, are based on a scale of 0 to 100 where 0 is no effect and 100 is complete control. A dash (-) response means no test result.

soybean = assay: Test C preemergence; format: in vivo, Glycine max; conditions: for Plant response rating (scale of 0 to 100), Soybean: Preemergence, 250 g ai/ha; for Soybean plant response rating / Plant response rating, Soybean: preemergence; for Plant response rating, Soybean: scale 0 to 100, 0 = no effect, 100 = complete control
From the text: as §3, §4

johnsongrass = assay: Test C preemergence; format: in vivo, Sorghum halepense; conditions: for Plant response rating (scale of 0 to 100), Johnsongrass: Preemergence, 250 g ai/ha; for Johnsongrass plant response rating / Plant response rating, Johnsongrass: preemergence; for Plant response rating, Johnsongrass: scale 0 to 100, 0 = no effect, 100 = complete control
From the text: as §3, §4

blackgrass = assay: Test C preemergence; format: in vivo, Alopecurus myosuroides; conditions: for Plant response rating (scale of 0 to 100), Blackgrass: Preemergence, 250 g ai/ha; for Blackgrass plant response rating / Plant response rating, Blackgrass: preemergence; for Plant response rating, Blackgrass: scale 0 to 100, 0 = no effect, 100 = complete control
From the text: as §3, §4

pigweed [4] = assay: Test A preemergence; format: in vivo, Amaranthus retroflexus; conditions: preemergence
How it was run: as §1

wheat = assay: Test C preemergence; format: in vivo, Triticum aestivum; conditions: for Plant response rating (scale of 0 to 100), Wheat: Preemergence, 250 g ai/ha; for Wheat plant response rating / Plant response rating, Wheat: preemergence; for Plant response rating, Wheat: scale 0 to 100, 0 = no effect, 100 = complete control
How it was run: as §2

corn = assay: Test A preemergence; format: in vivo, Zea mays; conditions: preemergence
How it was run: as §1

[5] = 125 g ai/ha, visual injury, 0 to 100 scale, approx. 10 days
[6] = 500 g ai/ha, visual injury after approx. 10 days, 0 to 100 scale (0 no effect, 100 complete control)
[7] = 31 g ai/ha, visual rating, scale 0 to 100 (0 no effect, 100 complete control), 13 to 15 days
[8] = 125 g ai/ha, scale 0 to 100, 0 is no effect, 100 is complete control
[9] = Postemergence, 500 g ai/ha, visual rating after approx. 10 days, 0 to 100 scale (0 no effect, 100 complete control)
[10] = postemergence, 125 g ai/ha, about 10 days, visual rating on 0 to 100 scale (0 no effect, 100 complete control)
[11] = 62 g ai/ha, scale 0 to 100 (0 no effect, 100 complete control), 13 to 15 days
[12] = Postemergence, 500 g ai/ha, 0 to 100 scale (0 no effect, 100 complete control)

## CCCc1cc(C(=O)NCC)nn1Cc1ccnc(C(F)(F)F)c1 [Compound 95]
morningglory; [5]
  Morningglory plant response rating: 100
morningglory; [6]
  Morningglory plant response rating: 100
galium
  Plant response rating (scale of 0 to 100), Galium: 100
galium; [7]
  Galium plant response rating: 100
galium; 62 g ai/ha, 13 to 15 days
  Plant response rating, Galium: 100
galium; [8]
  Galium plant response rating: 100
Oilseed rape
  Plant response rating (scale of 0 to 100), Oilseed Rape: 100
Oilseed rape; [7]
  Oilseed Rape plant response rating: 100
Oilseed rape; 62 g ai/ha, 13 to 15 days
  Plant response rating, Oilseed Rape: 100
Oilseed rape; [8]
  Oilseed Rape plant response rating: 100
Pigweed [1]; [9]
  Pigweed plant response rating: 100
Pigweed [1]; [10]
  Pigweed plant response rating: 100
crabgrass, large [2]; [9]
  Crabgrass, Large plant response rating: 100
crabgrass, large [2]; [10]
  Crabgrass, Large plant response rating: 90
barnyardgrass; [9]
  Barnyardgrass plant response rating: 100
barnyardgrass; [10]
  Barnyardgrass plant response rating: 90
ducksalad
  Plant response rating, Ducksalad: 85
crabgrass, large [3]
  Plant response rating (scale of 0 to 100), Crabgrass, Large: 100
crabgrass, large [3]; [7]
  Crabgrass, Large plant response rating: 98
crabgrass, large [3]; 62 g ai/ha, 13 to 15 days
  Plant response rating, Crabgrass, Large: 98
crabgrass, large [3]; [8]
  Crabgrass, Large plant response rating: 98
soybean
  Plant response rating (scale of 0 to 100), Soybean: 98
soybean; [7]
  Soybean plant response rating: 80
soybean; 62 g ai/ha, 13 to 15 days
  Plant response rating, Soybean: 90
soybean; [8]
  Soybean plant response rating: 95
johnsongrass
  Plant response rating (scale of 0 to 100), Johnsongrass: 100
johnsongrass; [7]
  Johnsongrass plant response rating: 60
johnsongrass; 62 g ai/ha, 13 to 15 days
  Plant response rating, Johnsongrass: 85
johnsongrass; [8]
  Johnsongrass plant response rating: 95
blackgrass
  Plant response rating (scale of 0 to 100), Blackgrass: 100
blackgrass; [7]
  Blackgrass plant response rating: 100
blackgrass; 62 g ai/ha, 13 to 15 days
  Plant response rating, Blackgrass: 100
blackgrass; [8]
  Blackgrass plant response rating: 100
Pigweed [4]; [5]
  Pigweed plant response rating: 100
Pigweed [4]; [6]
  Pigweed plant response rating: 100
wheat
  Plant response rating (scale of 0 to 100), Wheat: 90
wheat; [7]
  Wheat plant response rating: 5
wheat; 62 g ai/ha, 13 to 15 days
  Plant response rating, Wheat: 55
wheat; [8]
  Wheat plant response rating: 60
corn; [5]
  Corn plant response rating: 50
corn; [6]
  Corn plant response rating: 90

## CCc1cc(C(=O)NC2CC2)nn1Cc1ccnc(OC(F)F)c1 [Compound 98]
morningglory; [5]
  Morningglory plant response rating: 100
morningglory; [6]
  Morningglory plant response rating: 100
galium
  Plant response rating (scale of 0 to 100), Galium: 100
galium; [7]
  Galium plant response rating: 100
galium; 62 g ai/ha, 13 to 15 days
  Plant response rating, Galium: 100
galium; [8]
  Galium plant response rating: 100
Oilseed rape
  Plant response rating (scale of 0 to 100), Oilseed Rape: 100
Oilseed rape; [7]
  Oilseed Rape plant response rating: 100
Oilseed rape; 62 g ai/ha, 13 to 15 days
  Plant response rating, Oilseed Rape: 100
Oilseed rape; [8]
  Oilseed Rape plant response rating: 100
Pigweed [1]; [9]
  Pigweed plant response rating: 100
Pigweed [1]; [10]
  Pigweed plant response rating: 100
crabgrass, large [2]; [9]
  Crabgrass, Large plant response rating: 90
crabgrass, large [2]; [10]
  Crabgrass, Large plant response rating: 90
barnyardgrass; [9]
  Barnyardgrass plant response rating: 90
barnyardgrass; [10]
  Barnyardgrass plant response rating: 90
ducksalad
  Plant response rating, Ducksalad: 70
crabgrass, large [3]
  Plant response rating (scale of 0 to 100), Crabgrass, Large: 100
crabgrass, large [3]; [7]
  Crabgrass, Large plant response rating: 98
crabgrass, large [3]; 62 g ai/ha, 13 to 15 days
  Plant response rating, Crabgrass, Large: 100
crabgrass, large [3]; [8]
  Crabgrass, Large plant response rating: 100
soybean
  Plant response rating (scale of 0 to 100), Soybean: 98
soybean; [7]
  Soybean plant response rating: 30
soybean; 62 g ai/ha, 13 to 15 days
  Plant response rating, Soybean: 70
soybean; [8]
  Soybean plant response rating: 98
johnsongrass
  Plant response rating (scale of 0 to 100), Johnsongrass: 100
johnsongrass; [7]
  Johnsongrass plant response rating: 65
johnsongrass; 62 g ai/ha, 13 to 15 days
  Plant response rating, Johnsongrass: 70
johnsongrass; [8]
  Johnsongrass plant response rating: 100
blackgrass
  Plant response rating (scale of 0 to 100), Blackgrass: 100
blackgrass; [7]
  Blackgrass plant response rating: 70
blackgrass; 62 g ai/ha, 13 to 15 days
  Plant response rating, Blackgrass: 100
blackgrass; [8]
  Blackgrass plant response rating: 100
Pigweed [4]; [5]
  Pigweed plant response rating: 100
Pigweed [4]; [6]
  Pigweed plant response rating: 100
wheat
  Plant response rating (scale of 0 to 100), Wheat: 90
wheat; [7]
  Wheat plant response rating: 30
wheat; 62 g ai/ha, 13 to 15 days
  Plant response rating, Wheat: 45
wheat; [8]
  Wheat plant response rating: 70
corn; [5]
  Corn plant response rating: 70
corn; [6]
  Corn plant response rating: 80

## CCOc1cc(C(=O)NC2CC2)nn1Cc1ccnc(OC(F)F)c1 [Compound 133]
galium
  Plant response rating (scale of 0 to 100), Galium: 100
galium; [11]
  Galium plant response rating: 95
galium; 125 g ai/ha, 13 to 15 days
  Plant response rating, Galium: 98
Oilseed rape
  Plant response rating (scale of 0 to 100), Oilseed Rape: 100
Oilseed rape; [7]
  Oilseed Rape plant response rating: 60
Oilseed rape; [11]
  Oilseed Rape plant response rating: 100
Oilseed rape; 125 g ai/ha, 13 to 15 days
  Plant response rating, Oilseed Rape: 100
Pigweed [1]; [12]
  Pigweed plant response rating: 100
Pigweed [1]; [10]
  Pigweed plant response rating: 100
barnyardgrass; [12]
  Barnyardgrass plant response rating: 100
barnyardgrass; [10]
  Barnyardgrass plant response rating: 90
ducksalad
  Plant response rating, Ducksalad: 90
crabgrass, large [3]
  Plant response rating (scale of 0 to 100), Crabgrass, Large: 100
crabgrass, large [3]; [7]
  Crabgrass, Large plant response rating: 100
crabgrass, large [3]; [11]
  Crabgrass, Large plant response rating: 100
crabgrass, large [3]; 125 g ai/ha, 13 to 15 days
  Plant response rating, Crabgrass, Large: 100
soybean
  Plant response rating (scale of 0 to 100), Soybean: 95
soybean; [7]
  Soybean plant response rating: 50
soybean; [11]
  Soybean plant response rating: 40
soybean; 125 g ai/ha, 13 to 15 days
  Plant response rating, Soybean: 85
johnsongrass
  Plant response rating (scale of 0 to 100), Johnsongrass: 98
johnsongrass; [7]
  Johnsongrass plant response rating: 40
johnsongrass; [11]
  Johnsongrass plant response rating: 85
johnsongrass; 125 g ai/ha, 13 to 15 days
  Plant response rating, Johnsongrass: 90
blackgrass
  Plant response rating (scale of 0 to 100), Blackgrass: 95
blackgrass; [7]
  Blackgrass plant response rating: 85
blackgrass; [11]
  Blackgrass plant response rating: 90
blackgrass; 125 g ai/ha, 13 to 15 days
  Plant response rating, Blackgrass: 90
Pigweed [4]; [5]
  Pigweed plant response rating: 100
Pigweed [4]; [6]
  Pigweed plant response rating: 100
wheat
  Plant response rating (scale of 0 to 100), Wheat: 90
wheat; [7]
  Wheat plant response rating: 0
wheat; [11]
  Wheat plant response rating: 45
wheat; 125 g ai/ha, 13 to 15 days
  Plant response rating, Wheat: 90
